# Reference: ChEMBL document CHEMBL1821617, “Monanchocidins B-E: polycyclic guanidine alkaloids with potent antileukemic activities from the sponge Monanchora pulchra” (J Nat Prod, 2011)
# Test system: HL-60
# Assay: Cytotoxicity against human HL60 cells after 72 hrs by MTS assay
# Format: functional, cell-based
# Settings: HL-60, 72 h
row,Structure (SMILES),IC50
1,CC[C@@H]1C=CCC[C@]2(C[C@H]3CC[C@H]4[C@@H](C(=O)OCCCCCCCCCCCCCC[C@@H]5O[C@](O)(CCN)[C@H](O)N(CCCN)C5=O)[C@@]5(CCC[C@H](C)O5)NC(=[N+]34)N2)O1 [MONANCHOCIDIN B],200 nM
2,CC/C=C/[C@@H]1CC[C@]2(C[C@H]3CC[C@H]4[C@@H](C(=O)OC(CC)CCCCCCCCCCCCC[C@@H]5O[C@](O)(CCN)[C@H](O)N(CCCN)C5=O)[C@@]5(CCC[C@H](C)O5)NC(=[N+]34)N2)O1 (stereo partly specified) [MONANCHOCIDIN A],540 nM
3,CC[C@@H]1C=CCC[C@]2(C[C@H]3CC[C@H]4[C@@H](C(=O)OCCCCCCCCCCCCCCC[C@@H]5O[C@](O)(CCN)[C@H](O)N(CCCN)C5=O)[C@@]5(CCC[C@H](C)O5)NC(=[N+]34)N2)O1 [MONANCHOCIDIN C],110 nM
4,CC/C=C/[C@@H]1CC[C@]2(C[C@H]3CC[C@H]4[C@@H](C(=O)OC(CC)CCCCCCCCCCCC[C@@H]5O[C@](O)(CCN)[C@H](O)N(CCCN)C5=O)[C@@]5(CCC[C@H](C)O5)NC(=[N+]34)N2)O1 (stereo partly specified) [MONANCHOCIDIN E],650 nM
5,CC/C=C/[C@@H]1CC[C@]2(C[C@H]3CC[C@H]4[C@@H](C(=O)OCCCCCCCCCCCCCC[C@@H]5O[C@](O)(CCN)[C@H](O)N(CCCN)C5=O)[C@@]5(CCC[C@H](C)O5)NC(=[N+]34)N2)O1 [MONANCHOCIDIND],830 nM
6,CC(=O)O[C@H]1C(=O)[C@@]2(C)[C@H]([C@H](OC(=O)c3ccccc3)[C@]3(O)C[C@H](OC(=O)[C@H](O)[C@@H](NC(=O)c4ccccc4)c4ccccc4)C(C)=C1C3(C)C)[C@]1(OC(C)=O)CO[C@@H]1C[C@@H]2O [PACLITAXEL],3.4 nM
